Data: PubChem BioAssay (NCI)
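Grown in 96-well plates, cells were treated for 48 hours with each compound at five concentrations. Insufficient inhibition: endpoint recorded as highest concentration tested. TGI: concentration producing complete growth inhibition.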

Columns and labels:
Assay in all cases: DTP human tumour cell line panel, 48 h
MOLT-4 leukemia = test system: MOLT-4 leukemia
786-0 renal = test system: 786-0 renal
SR leukemia = test system: SR leukemia
K-562 leukemia = test system: K-562 leukemia
A498 renal = test system: A498 renal
SK-MEL-2 melanoma = test system: SK-MEL-2 melanoma
OVCAR-8 ovarian = test system: OVCAR-8 ovarian
MALME-3M melanoma = test system: MALME-3M melanoma
UO-31 renal = test system: UO-31 renal
HCT-15 colon = test system: HCT-15 colon
LOX IMVI melanoma = test system: LOX IMVI melanoma
HL-60(TB) leukemia = test system: HL-60(TB) leukemia
OVCAR-4 ovarian = test system: OVCAR-4 ovarian

Row | SMILES | TGI (MOLT-4 leukemia) [µM] | TGI (786-0 renal) [µM] | TGI (SR leukemia) [µM] | TGI (K-562 leukemia) [µM] | TGI (A498 renal) [µM] | TGI (SK-MEL-2 melanoma) [µM] | TGI (OVCAR-8 ovarian) [µM] | TGI (MALME-3M melanoma) [µM] | TGI (UO-31 renal) [µM] | TGI (HCT-15 colon) [µM] | TGI (LOX IMVI melanoma) [µM] | TGI (HL-60(TB) leukemia) [µM] | TGI (OVCAR-4 ovarian) [µM]
1 | COc1ccccc1C(O)[C@@H]1C[C@@H]2[C@H]3CC[C@@](C)([C@@H]2O1)C3(C)C (stereo not given in full) | 39 | 32.7 | 48.3 | 52.3 | 29.5 | 34.3 | 38.9 | 30.2 | 32.4 | 57.7 | 35.8 | 49.1 | 
2 | O=C1/C(=C/c2ccccc2[N+](=O)[O-])N=C(c2ccccc2)N1c1nc2ccccc2s1 | 34.7 | 58.8 | 34.3 | 44.7 | 72.1 | > 100 | 39.7 |  | > 100 | 56.8 | 56.8 | 57.1 | 51
3 | O=[N+]([O-])c1ccc(-n2nc3ccc4c(no[n+]4[O-])c3n2)cc1 | > 100 | > 100 | > 100 | > 100 |  | > 100 | > 100 | > 100 | > 100 | > 100 | > 100 | > 100 | > 100
4 | Cc1ccc(C)n2c1nc1ccccc12 | > 100 | > 100 | > 100 | > 100 | 33.7 |  | > 100 | > 100 | > 100 | > 100 |  | > 100 | 
5 | COC1CC(OC2C(C)OC(OC3C(C)OC(OC4C(C)OC(O[C@H]5CC[C@@]6(C)C(=CC[C@]7(O)[C@@H]6C[C@@H](OC(C)=O)[C@@]6(C)[C@]7(O)CC[C@@]6(O)C(C)=O)C5)CC4OC)CC3OC)CC2OC)OC(C)C1O (stereo not given in full) | > 25 | > 25 | > 25 | > 25 |  | > 25 | > 25 | > 25 | > 25 | > 25 | > 25 | > 25 | > 25
6 | CCOC(=O)/C=C(/C(=O)OCC)n1ccc(=O)n(Cc2cnnn2COCCOC(C)=O)c1=O | 23.4 | 29.2 | 45.7 | > 100 | 65 | 41.9 | 30.6 | 26.3 | 29.6 | 31 | 37.3 |  | 41.5
7 | COC(=O)/C=C1/OC(c2ccccc2)=C(C)C1=O | > 100 | 22.3 | 7.09 | 15 | 32.8 |  | 81.6 | 26.7 | 26.7 | 17 | 2.72 | 4.97 | 
8 | CC(=O)OCC(=O)OC[C@H](OCc1ccccc1)[C@@H]1[C@H](OC(C)=O)C(=O)N1Cc1ccccc1 | > 100 | > 100 | > 100 | > 100 | > 100 | > 100 | > 100 | > 100 | > 100 | > 100 | > 100 |  | > 100
9 | Cc1cc2nc3ccccc3n2c2nc(N)ccc12 | > 100 | > 100 | > 100 | > 100 | > 100 | > 100 | 80.4 |  | > 100 | 93.1 | > 100 | > 100 | > 100
10 | C=C(C(=O)OC)[C@@H]1C[C@@H](OC(C)=O)C2=C[C@H](C[C@@]3(C)O[C@@H]3C3=CC(C)=C(O3)[C@H]1OC(C)=O)OC2=O | 6.72 | 49.1 | 37.6 | 24.9 | 33.8 | > 100 | > 100 | 30.7 | 36.3 | > 100 | 41.8 |  | > 100
11 | CCN(CC)CCN(C)c1ccc(CO)c2c1C(=O)c1ccccc1S2=O (stereo not given) |  | 3.22 | 5.53 | > 20.3 | 23.4 | 40.1 | 3.5 | 27.2 | 42.1 | 12.9 | 3.66 | 51.8 | 11.7
12 | COc1cccc(C2SC(N)=Nc3c2c(C)nn3C(=O)Cc2ccccc2)c1 (stereo not given) | > 100 | > 100 | > 100 | > 100 | > 100 |  | > 100 | > 100 | > 100 | > 100 | > 100 | > 100 | 
13 | OC(CN(CCCl)CCCl)C(O)C(O)C(O)CN(CCCl)CCCl (stereo not given) |  | > 100 | > 100 | > 100 | > 100 | > 100 | > 100 | > 100 | > 100 | > 100 | > 100 | > 100 | 
14 | Cc1ccc2nc(C(C)C)c(=O)[nH]c2c1 | > 100 | > 100 | > 100 | > 100 | > 100 | 28.2 | > 100 | > 100 | > 100 | > 100 |  | > 100 | > 100
15 | C=CCOC(=O)C1=C(C)NC2=N[C@H](CCCCCCCCC)C[C@@H]3CCC1N23 (stereo not given in full) | > 100 | 39.3 | > 100 | > 100 |  | 36.5 | > 100 | 35.7 | 32.5 | 56.2 | 44.9 | 69.4 | 45.9
16 | S=c1ncc2c([nH]1)C1c3ccccc3C2c2ccccc21 | > 100 | > 100 | > 100 | > 100 |  | > 100 | > 100 | > 100 | > 100 | > 100 | > 100 | 70.3 | > 100
17 | C=C1C(=O)O[C@H]2C1C[C@@H](OC(C)=O)/C(C)=C/CC[C@@]1(C)O[C@H]21 (stereo not given in full) | 9.7 | 23.9 | 20.1 | 39.5 |  | 57.9 | 32.5 | 18.7 | 17 | 22.9 | 19.1 |  | 28.9
18 | CCCCCc1c(CCCC)c(=O)[nH]c2nc(NC(=O)CCCC)ccc12 | > 100 | > 100 | > 100 | > 100 | > 100 | > 100 | > 100 | > 100 | > 100 | > 100 | > 100 |  | > 100
